Two substances from publication PMC9875641, “Ophthalmic Solution of Smart Supramolecular Peptides to Capture Semaphorin 4D against Diabetic Retinopathy” (Advanced Science, 2022) can be followed below.

Series [1] deals with T1, sSema 4D (Homo sapiens, UniProt Q92854).
T1 construct: purchased Novoprotein Ltd. (Suzhou, China)
T1 sequence (Q92854 22-734 limits assumed): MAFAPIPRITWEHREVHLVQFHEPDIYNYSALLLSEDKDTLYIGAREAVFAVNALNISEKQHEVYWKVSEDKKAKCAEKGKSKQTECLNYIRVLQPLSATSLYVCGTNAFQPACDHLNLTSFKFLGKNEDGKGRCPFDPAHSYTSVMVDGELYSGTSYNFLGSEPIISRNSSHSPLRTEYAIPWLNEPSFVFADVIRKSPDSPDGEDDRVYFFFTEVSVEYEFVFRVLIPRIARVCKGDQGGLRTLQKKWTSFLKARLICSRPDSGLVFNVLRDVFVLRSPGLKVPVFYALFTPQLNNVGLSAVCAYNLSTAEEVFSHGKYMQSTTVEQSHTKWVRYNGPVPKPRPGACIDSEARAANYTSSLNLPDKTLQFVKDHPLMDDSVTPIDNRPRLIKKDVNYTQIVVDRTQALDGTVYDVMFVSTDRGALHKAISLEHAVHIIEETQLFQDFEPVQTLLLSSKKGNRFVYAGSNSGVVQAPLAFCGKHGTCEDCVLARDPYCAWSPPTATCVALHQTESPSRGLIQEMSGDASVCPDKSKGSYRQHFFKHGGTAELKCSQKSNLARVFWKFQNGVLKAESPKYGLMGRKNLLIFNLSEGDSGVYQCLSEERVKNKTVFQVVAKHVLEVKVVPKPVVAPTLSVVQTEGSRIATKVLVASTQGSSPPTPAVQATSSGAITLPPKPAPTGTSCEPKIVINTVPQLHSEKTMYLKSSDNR
Description: ELISA binding affinity of TPs and SSPs to sSema 4D (and BSA). Here is the method:
To carry out the library screening, we first labeled the sSema4D with fluorescein isothiocyanate isomer (FITC), as shown in Figure 2E. Next, ≈10^6 beads library was incubated with FITC‐labeled sSema4D for 6 hours. The beads were thoroughly washed with DMF, water and methanol. Finally, under the fluorescence microscope, the beads with […] to sSema4D or FITC‐labeled sSema4D through noncovalent bonding were identified in Figure 2F. We selected twelve strongest putative fluorescent beads by physical separation. Subsequently, the corresponding peptides were cleaved off with BrCN from beads and analyzed by automatic Edman sequencing. The structures and sequence of transformable peptides (TPs) were determined and summarized (Figure S2, Supporting Information). TP‐1 to TP‐12 were resynthesized into solid phase and purified by high performance liquid chromatography (HPLC). The binding affinity of TPs toward sSema 4D was measured by enzyme‐linked immunosorbent assay (ELISA) and surface plasmon resonance imaging (SPRi). […] TP‐2 and TP‐7 were selected as the candidate TP binding sSema 4D to construct SSP. Subsequent SSP monomers (SSP‐1, sequence: C16‐FFVLK‐KQKRPRH; SSP‐2 C16‐FFVLK‐KNKAAKG) were synthesized and characterized by HPLC and Matrix‐assisted laser desorption/ionization time‐of‐flight mass spectrometry (MALDI‐TOF‐MS).

For series [2], the system named is OIR model. Description: Oxygen-induced retinopathy (OIR) model, pathological retinal neovascularization. Particulars: for reduction of pathological retinal neovascularization by eye drops plus anti-VEGF injection compared with anti-VEGF injection alone: isolectin B4, anti-VEGF antibody 2 µg intravitreal at P12, eye drops twice a day until P17, on average. It is filed as in vivo, mouse. Here is the method:
follows: 5’-[…]-3’, 5’- […]
OIR. OIR model was performed as previously described. The pups and their mothers […]
were exposed to 75% oxygen at 7-12 days after birth, and then exposed to indoor air […]
for another 5 days. At P17, the mice were anesthetized and sacrificed, and the retinas […]
Isolectin B4. Isolectin B4 staining for retinal blood vessel visualization is as […]
described above. After fixing the eyeball with 4% paraformaldehyde (overnight at 4 […]
degrees), the intact retina was peeled off using microscissors and micro tweezers.
After rupture of the membrane with 2% Triton X-100, the retina was placed in the […]
configured isolectin B4 staining (1:100) overnight at 4 degrees. Acquire multiple […]
overlapping (10-20% overlap) images using a fluorescence microscope and merge […]
them together in Adobe Photoshop to visualize the entire retina. Use ImageJ software to quantify the area of pathological neovascularization relative to the total retinal area. […]
(§1) Statistical analysis. Statistical analysis was conducted using Graphpad Prism 8.0 software. All data were expressed by mean ± SD. Unpaired two-tailed Student’s t-test (two groups) or one-way ANOVA (more than 2 groups) was used to analyze the statistical significances of the data. Person’s correlation analysis was conducted to […]

Series [3] concerns STZ model. Kind of series: STZ-induced retinopathy model, retinal vascular leakage. The series is classed as in vivo, mouse. Conditions: for reduction of retinal vascular leakage by eye drops plus anti-VEGF injection compared with anti-VEGF injection alone: Evans blue, anti-VEGF antibody 2 µg intravitreal at third month, eye drops twice a day for 30 d, on average; for reduction of retinal vascular leakage by eye drops plus anti-VEGF injection compared with anti-VEGF injection alone / vascular leakage (Evans blue assay): n = 9; for diabetes-induced retinal acellular capillary formation: eye drops 10 µL per eye twice daily for 30 d, PDGFRb/collagen IV staining, n = 6. Here is the method:
follows: 5’-[…]-3’, 5’-
STZ. Eight-week-old male C57BL/6 mice were starved for 4 hours before each […]
injection of streptozotocin (STZ, Sigma, St. Louis, MO), and then injected with STZ […]
(50 mg/kg) for 5 consecutive days. Mice in the vehicle control group were […]
intraperitoneally injected with citrate buffer for 5 consecutive days. A blood glucose […]
meter (ONETOUCH, Johnson & Johnson, USA) was used to evaluate the fasting […]
blood glucose of the mice 7 days after the last injection of STZ. Mice with blood […]
glucose levels greater than or equal to 16.7 mM were considered successful in STZ […]
modeling. […]
Evans blue assay. Mice were intraperitoneally injected with Evans Blue dye (200 mg/kg) and circulated for 5 hours. The mice were perfused with PBS, and the eyes were fixed with 4% PFA at 4 degrees Celsius for 12 hours, and the retina was separated. Some retinas are tested for Evans Blue fluorescence using a fluorescence microscope. Adding formamide (70 μL/piece) to the rest of the retina and incubate overnight at 70°C to extract the […]. Detect the absorbance of formamide at 620/740 nm (background) with a microplate reader. Calculate the content of Evans blue in the retina from the standard curve, and then standardize it based on the weight of the retina and the content of Evans blue in the blood. […]
as §1

In series [4] the test system is retina. Description: Biosafety in the retina after intraocular injection. It is filed as in vivo, mouse. Conditions: for pathological changes in the retina (HE staining): 30 d after intraocular injection; for abnormalities in retinal pigment epithelium, rod and cone layer, outer nuclear layer and retinal ganglion cells (electron microscopy): mouse, in vivo. From the text:
After 30 d of SSP‐1 and SSP‐2 intraocular injection, the biosafety of SSP‐1 and SSP‐2 was systematically studied by H&E staining and electron microscopy.

[5] abbreviates: eye drops 5 µL per eye twice daily P12 to P17, n = 8, equal to intraocular anti-Sema4D antibody.
[6] abbreviates: eye drops 5 µL per eye twice daily P12 to P17, vs littermate controls, n = 7.
[7] abbreviates: intravitreal injection at P12, retinas at P17, n = 8, effect equal to Sema4D antibody.
Where [8] appears, read: intravitreal injection at P12, retinas at P17, vs littermate controls, n = 6.
Where [9] appears, read: eye drops 10 µL per eye twice daily for 30 d after third month since diabetes induction, equal to intraocular anti-Sema4D antibody.
[10] abbreviates: intravitreal injection at third month since diabetes induction, retinas at fourth month, similar to anti-Sema4D antibody.

Take “C16‐FFVLK‐KNKAAKG [SSP-2, smart supramolecular peptide, C16‐FFVLK‐KNKAAKG, self-assembling, captures sSema4D]”: the “binding affinity with sSema4D on ELISA, compared with TPs” value in series [1] is “higher binding affinity compared with TPs”. Also, the “pathological retinal vascular neovascularization (isolectin B4 staining)” value in series [2] (setting [5]) and in series [2] (setting [7]) was “decreased” in each case. Further, the results for the “numbers of preretinal neovascular cells” value in series [2] (setting [6]) and in series [2] (setting [8]) were “significantly decreased” and “significantly reduced”, respectively. In addition, the “reduction of pathological retinal neovascularization by eye drops plus anti-VEGF injection compared with anti-VEGF injection alone” value in series [2] amounted to 22.68%. In addition, the “reduction of retinal vascular leakage by eye drops plus anti-VEGF injection compared with anti-VEGF injection alone” value in series [3] is given as 15.49%. Moreover, in series [3], the “diabetes-induced retinal acellular capillary formation” value was “ameliorated”. Moreover, the “vascular leakage (Evans blue assay)” value in series [3] (setting [9]) and in series [3] (setting [10]) was “significantly decreased” each time. Further, the “pathological changes in the retina (HE staining)” value in series [4] is recorded as “no significant pathological changes”. In addition, in series [4], the “abnormalities in retinal pigment epithelium, rod and cone layer, outer nuclear layer and retinal ganglion cells (electron microscopy)” value is “no significant abnormalities”.

Take “C16‐FFVLK‐KQKRPRH [SSP-1, smart supramolecular peptide, C16‐FFVLK‐KQKRPRH, self-assembling, captures sSema4D]”: the “binding affinity with sSema4D on ELISA, compared with TPs” value in series [1] is on record as “higher binding affinity compared with TPs”. The “pathological retinal vascular neovascularization (isolectin B4 staining)” value in series [2] (setting [5]) and in series [2] (setting [7]) was “decreased” throughout. Further, the figures for the “numbers of preretinal neovascular cells” value in series [2] (setting [6]) and in series [2] (setting [8]) were “significantly decreased” and “significantly reduced”, respectively. Moreover, the “reduction of pathological retinal neovascularization by eye drops plus anti-VEGF injection compared with anti-VEGF injection alone” value in series [2] is 25.72%. Moreover, the “reduction of retinal vascular leakage by eye drops plus anti-VEGF injection compared with anti-VEGF injection alone” value in series [3] was 20.21%. For the same substance, the “diabetes-induced retinal acellular capillary formation” value in series [3] is on record as “ameliorated”. Further, the “vascular leakage (Evans blue assay)” value in series [3] (setting [9]) and in series [3] (setting [10]) was “significantly decreased” in each case. Moreover, in series [4], the “pathological changes in the retina (HE staining)” value is listed as “no significant pathological changes”. Besides, the “abnormalities in retinal pigment epithelium, rod and cone layer, outer nuclear layer and retinal ganglion cells (electron microscopy)” value in series [4] is recorded as “no significant abnormalities”.
